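Briefly, cells in 96-well plates were exposed to five compound concentrations for 48 h, and endpoints were estimated by linear interpolation. GI50 marks 50% less growth.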 Active and inactive are the calls of the source. Rule as the data show it: active = GI50 up to about 1.1 µM and inactive = higher.
Tests used:
Test in all cases: inhibition of tumour cell growth, NCI panel, 48 h
786-0 = tested on: 786-0
A498 = tested on: A498
A549 = tested on: A549
ACHN = tested on: ACHN
CAKI-1 = tested on: CAKI-1
CCRF-CEM = tested on: CCRF-CEM
COLO 205 = tested on: COLO 205
DLD-1 = tested on: DLD-1
DMS-114 = tested on: DMS-114
DMS-273 = tested on: DMS-273
EKVX = tested on: EKVX
HCC 2998 = tested on: HCC 2998
HCT-116 = tested on: HCT-116
HCT-15 = tested on: HCT-15
HOP-18 = tested on: HOP-18
HOP-62 = tested on: HOP-62
HOP-92 = tested on: HOP-92
IGROV-1 = tested on: IGROV-1
K562 = tested on: K562
KM-20L2 = tested on: KM-20L2
KM12 = tested on: KM12
LOX IMVI = tested on: LOX IMVI
LXFL 529 = tested on: LXFL 529
M14 = tested on: M14
M19-MEL = tested on: M19-MEL
MOLT-4 = tested on: MOLT-4
Malme-3M = tested on: Malme-3M
NCI-H226 = tested on: NCI-H226
NCI-H23 = tested on: NCI-H23
NCI-H460 = tested on: NCI-H460
NCI-H522 = tested on: NCI-H522
OVCAR-3 = tested on: OVCAR-3
OVCAR-4 = tested on: OVCAR-4
OVCAR-5 = tested on: OVCAR-5
OVCAR-8 = tested on: OVCAR-8
RXF 393 = tested on: RXF 393
RXF 631 = tested on: RXF 631
SF-268 = tested on: SF-268
SF-295 = tested on: SF-295
SF-539 = tested on: SF-539
SK-MEL-28 = tested on: SK-MEL-28
SK-MEL-2 = tested on: SK-MEL-2
SK-MEL-5 = tested on: SK-MEL-5
SK-OV-3 = tested on: SK-OV-3
SN12C = tested on: SN12C
SNB-19 = tested on: SNB-19
SNB-75 = tested on: SNB-75
SNB-78 = tested on: SNB-78
SR = tested on: SR
SW-620 = tested on: SW-620
TK-10 = tested on: TK-10
U-251 = tested on: U-251
UACC-257 = tested on: UACC-257
UACC-62 = tested on: UACC-62
UO-31 = tested on: UO-31
XF498 = tested on: XF498
HT-29 = tested on: HT-29
RPMI-8226 = tested on: RPMI-8226

COc1ccc2nc3cc(Cl)ccc3c(Sc3ccc(N)cc3)c2c1
GI50 (786-0): 6.95 µM (inactive) | GI50 (A498): 29.1 µM (inactive) | GI50 (A549): 12.5 µM (inactive) | GI50 (ACHN): 10.1 µM (inactive) | GI50 (CAKI-1): 12.9 µM (inactive) | GI50 (CCRF-CEM): 3.81 µM (inactive) | GI50 (COLO 205): 11.2 µM (inactive) | GI50 (DLD-1): 4.47 µM (inactive) | GI50 (DMS-114): 4.99 µM (inactive) | GI50 (DMS-273): 10.6 µM (inactive) | GI50 (EKVX): 11.7 µM (inactive) | GI50 (HCC 2998): 12.2 µM (inactive) | GI50 (HCT-116): 4.78 µM (inactive) | GI50 (HCT-15): 3.94 µM | GI50 (HOP-18): 12.2 µM (inactive) | GI50 (HOP-62): 24.2 µM (inactive) | GI50 (HOP-92): 24.4 µM (inactive) | GI50 (IGROV-1): 16.1 µM (inactive) | GI50 (K562): 3.42 µM (inactive) | GI50 (KM-20L2): 4.59 µM (inactive) | GI50 (KM12): 6.76 µM (inactive) | GI50 (LOX IMVI): 7.6 µM (inactive) | GI50 (LXFL 529): 4.32 µM (inactive) | GI50 (M14): 9.06 µM (inactive) | GI50 (M19-MEL): 7.62 µM (inactive) | GI50 (MOLT-4): 2.56 µM (inactive) | GI50 (Malme-3M): 15 µM (inactive) | GI50 (NCI-H226): 18.5 µM (inactive) | GI50 (NCI-H23): 14.1 µM (inactive) | GI50 (NCI-H460): 7.98 µM (inactive) | GI50 (NCI-H522): 4.83 µM (inactive) | GI50 (OVCAR-3): 9.57 µM (inactive) | GI50 (OVCAR-4): 15.5 µM (inactive) | GI50 (OVCAR-5): 19.8 µM (inactive) | GI50 (OVCAR-8): 11 µM (inactive) | GI50 (RXF 393): 11.7 µM (inactive) | GI50 (RXF 631): 11 µM (inactive) | GI50 (SF-268): 11.6 µM (inactive) | GI50 (SF-295): 16.7 µM (inactive) | GI50 (SF-539): 13.9 µM (inactive) | GI50 (SK-MEL-28): 14.9 µM (inactive) | GI50 (SK-MEL-2): 13.8 µM (inactive) | GI50 (SK-MEL-5): 12.4 µM (inactive) | GI50 (SK-OV-3): 4.37 µM (inactive) | GI50 (SN12C): 11.6 µM (inactive) | GI50 (SNB-19): 16.9 µM (inactive) | GI50 (SNB-75): 11 µM (inactive) | GI50 (SNB-78): 12.5 µM (inactive) | GI50 (SR): 2.62 µM (inactive) | GI50 (SW-620): 3.77 µM (inactive) | GI50 (TK-10): 13.2 µM (inactive) | GI50 (U-251): 10.5 µM (inactive) | GI50 (UACC-257): 13.2 µM (inactive) | GI50 (UACC-62): 5.04 µM (inactive) | GI50 (UO-31): 10.8 µM (inactive) | GI50 (XF498): 14.2 µM (inactive)

O=C(N/C(=C\c1ccc(Br)cc1)c1nc2ccccc2s1)c1ccccc1
GI50 (786-0): > 100 µM (inactive) | GI50 (A498): 90.8 µM (inactive) | GI50 (A549): 61.4 µM (inactive) | GI50 (ACHN): 76.9 µM (inactive) | GI50 (CAKI-1): > 100 µM (inactive) | GI50 (CCRF-CEM): 21.5 µM (inactive) | GI50 (COLO 205): > 100 µM (inactive) | GI50 (DLD-1): 46.9 µM (inactive) | GI50 (DMS-114): 46.5 µM (inactive) | GI50 (DMS-273): 91.6 µM (inactive) | GI50 (EKVX): 37.5 µM (inactive) | GI50 (HCT-116): 53 µM (inactive) | GI50 (HCT-15): 46.1 µM | GI50 (HOP-18): > 100 µM (inactive) | GI50 (HOP-92): 38.2 µM (inactive) | GI50 (HT-29): 69.2 µM (inactive) | GI50 (IGROV-1): 75.2 µM (inactive) | GI50 (K562): 51.4 µM (inactive) | GI50 (KM-20L2): > 100 µM (inactive) | GI50 (KM12): > 100 µM (inactive) | GI50 (LOX IMVI): 65.2 µM (inactive) | GI50 (LXFL 529): 54.5 µM (inactive) | GI50 (M14): > 100 µM (inactive) | GI50 (M19-MEL): 70.3 µM (inactive) | GI50 (MOLT-4): 29.9 µM (inactive) | GI50 (Malme-3M): > 100 µM (inactive) | GI50 (NCI-H226): > 100 µM (inactive) | GI50 (NCI-H23): 25.5 µM (inactive) | GI50 (NCI-H460): 85.1 µM (inactive) | GI50 (NCI-H522): 32 µM (inactive) | GI50 (OVCAR-3): > 100 µM (inactive) | GI50 (OVCAR-4): 30.8 µM (inactive) | GI50 (OVCAR-5): > 100 µM (inactive) | GI50 (OVCAR-8): 89.9 µM (inactive) | GI50 (RPMI-8226): 32.5 µM (inactive) | GI50 (RXF 393): 43.4 µM (inactive) | GI50 (RXF 631): 87.3 µM (inactive) | GI50 (SF-268): 36.2 µM (inactive) | GI50 (SF-539): 88.9 µM (inactive) | GI50 (SK-MEL-28): > 100 µM (inactive) | GI50 (SK-MEL-2): > 100 µM (inactive) | GI50 (SK-MEL-5): 36 µM (inactive) | GI50 (SK-OV-3): > 100 µM (inactive) | GI50 (SN12C): > 100 µM (inactive) | GI50 (SNB-19): 47 µM (inactive) | GI50 (SNB-75): > 100 µM (inactive) | GI50 (SNB-78): > 100 µM (inactive) | GI50 (SW-620): > 100 µM (inactive) | GI50 (TK-10): > 100 µM (inactive) | GI50 (U-251): 56 µM (inactive) | GI50 (UACC-257): > 100 µM (inactive) | GI50 (UACC-62): 71 µM (inactive) | GI50 (UO-31): 40.3 µM (inactive) | GI50 (XF498): > 100 µM (inactive)
